Assay results from PMC7719162, “Positioning of an unprecedented spiro[5.5]undeca ring system into kinase inhibitor space” (Scientific Reports, 2020).
Like-named read-outs stand apart in the source and are kept apart here.

Tests used:
[1] = target: T1, TLK1 (Homo sapiens, UniProt Q9UKI8); experiment: Kinase panel assay (radiolabelled); format: biochemical; conditions: ATP 10 μM
T1 construct: purchased Reaction Biology Corp
T1 sequence (Q9UKI8 1-766): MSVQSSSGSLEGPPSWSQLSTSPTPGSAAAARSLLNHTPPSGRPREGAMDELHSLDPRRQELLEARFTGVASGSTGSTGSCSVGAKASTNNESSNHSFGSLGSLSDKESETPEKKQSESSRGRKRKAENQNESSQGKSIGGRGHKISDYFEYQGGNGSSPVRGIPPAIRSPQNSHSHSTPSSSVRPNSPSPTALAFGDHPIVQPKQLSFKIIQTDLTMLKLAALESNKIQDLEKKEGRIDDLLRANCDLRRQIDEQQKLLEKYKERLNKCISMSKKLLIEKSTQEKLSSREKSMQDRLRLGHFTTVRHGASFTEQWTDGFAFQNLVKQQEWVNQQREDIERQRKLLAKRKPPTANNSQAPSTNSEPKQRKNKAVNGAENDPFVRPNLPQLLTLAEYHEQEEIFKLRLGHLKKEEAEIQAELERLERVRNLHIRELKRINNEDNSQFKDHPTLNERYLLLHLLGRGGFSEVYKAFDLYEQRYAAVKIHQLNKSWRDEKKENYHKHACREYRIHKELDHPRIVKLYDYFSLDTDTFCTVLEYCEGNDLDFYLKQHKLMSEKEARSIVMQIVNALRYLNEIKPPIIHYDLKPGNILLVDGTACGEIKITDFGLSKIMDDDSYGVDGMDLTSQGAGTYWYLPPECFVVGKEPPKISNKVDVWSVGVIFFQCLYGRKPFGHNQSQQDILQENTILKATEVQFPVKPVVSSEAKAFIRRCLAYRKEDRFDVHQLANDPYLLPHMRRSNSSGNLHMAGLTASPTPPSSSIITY

[2] = target: T2, TRKC (L686M) (Homo sapiens, UniProt Q16288, L686M); experiment: Kinase panel assay (radiolabelled); format: biochemical; conditions: 30 μM compound, ATP 10 μM, duplicates Data 1/Data 2
T2 construct: purchased Reaction Biology Corp
T2 sequence (Q16288 32-839 L686M): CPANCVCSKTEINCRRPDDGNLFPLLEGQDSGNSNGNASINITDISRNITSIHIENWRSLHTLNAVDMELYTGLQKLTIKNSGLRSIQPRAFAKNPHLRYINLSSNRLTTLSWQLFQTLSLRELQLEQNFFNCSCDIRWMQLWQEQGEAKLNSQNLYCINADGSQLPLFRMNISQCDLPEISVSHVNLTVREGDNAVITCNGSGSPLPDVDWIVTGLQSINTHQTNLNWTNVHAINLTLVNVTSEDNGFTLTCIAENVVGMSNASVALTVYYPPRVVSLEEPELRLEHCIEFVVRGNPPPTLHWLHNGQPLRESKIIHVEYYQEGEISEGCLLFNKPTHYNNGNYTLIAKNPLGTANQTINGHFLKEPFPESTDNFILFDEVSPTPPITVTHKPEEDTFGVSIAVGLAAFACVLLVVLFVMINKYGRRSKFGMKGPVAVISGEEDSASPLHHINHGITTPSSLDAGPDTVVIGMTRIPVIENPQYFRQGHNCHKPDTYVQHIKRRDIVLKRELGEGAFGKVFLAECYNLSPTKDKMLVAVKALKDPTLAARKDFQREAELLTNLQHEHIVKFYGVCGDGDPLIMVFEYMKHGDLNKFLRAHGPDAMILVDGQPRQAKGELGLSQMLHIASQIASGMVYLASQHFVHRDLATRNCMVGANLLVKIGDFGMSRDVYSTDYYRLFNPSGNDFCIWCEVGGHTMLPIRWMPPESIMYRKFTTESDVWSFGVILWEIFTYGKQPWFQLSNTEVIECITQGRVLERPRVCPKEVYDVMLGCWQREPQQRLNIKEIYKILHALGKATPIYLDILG

[3] = target: T3, PI3Kd (p110d/p85a) (Homo sapiens, UniProt O00329); experiment: Kinase panel assay (lipid kinase); format: biochemical; conditions: 30 μM compound, ATP 10 μM, duplicates Data 1/Data 2
T3 construct: purchased Reaction Biology Corp
T3 sequence (O00329 whole entry): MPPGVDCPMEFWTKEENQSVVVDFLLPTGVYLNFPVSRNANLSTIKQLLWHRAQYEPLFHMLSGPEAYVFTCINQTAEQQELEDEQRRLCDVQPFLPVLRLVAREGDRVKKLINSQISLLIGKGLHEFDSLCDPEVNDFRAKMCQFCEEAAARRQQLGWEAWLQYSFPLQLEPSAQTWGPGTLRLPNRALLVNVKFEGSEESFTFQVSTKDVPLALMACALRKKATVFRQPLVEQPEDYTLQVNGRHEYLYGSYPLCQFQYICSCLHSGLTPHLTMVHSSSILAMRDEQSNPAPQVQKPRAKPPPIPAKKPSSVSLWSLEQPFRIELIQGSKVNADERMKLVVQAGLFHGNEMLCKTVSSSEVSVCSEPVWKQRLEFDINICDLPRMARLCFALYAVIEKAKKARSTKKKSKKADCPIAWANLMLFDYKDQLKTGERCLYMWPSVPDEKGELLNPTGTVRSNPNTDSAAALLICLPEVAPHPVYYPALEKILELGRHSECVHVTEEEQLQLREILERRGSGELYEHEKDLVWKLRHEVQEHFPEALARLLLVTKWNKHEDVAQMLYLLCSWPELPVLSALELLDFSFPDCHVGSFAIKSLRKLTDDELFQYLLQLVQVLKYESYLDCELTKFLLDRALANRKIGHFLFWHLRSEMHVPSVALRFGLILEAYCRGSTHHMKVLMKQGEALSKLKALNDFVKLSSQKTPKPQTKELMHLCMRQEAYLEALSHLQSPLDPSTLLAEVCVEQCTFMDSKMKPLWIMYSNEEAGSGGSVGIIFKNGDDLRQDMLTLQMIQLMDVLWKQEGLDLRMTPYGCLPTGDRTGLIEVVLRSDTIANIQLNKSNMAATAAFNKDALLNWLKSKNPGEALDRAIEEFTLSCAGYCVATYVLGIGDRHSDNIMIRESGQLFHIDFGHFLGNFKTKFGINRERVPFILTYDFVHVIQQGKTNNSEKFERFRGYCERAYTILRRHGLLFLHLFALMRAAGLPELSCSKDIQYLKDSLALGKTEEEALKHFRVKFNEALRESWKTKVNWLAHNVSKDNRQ
T3 sequence (P27986 whole entry partner): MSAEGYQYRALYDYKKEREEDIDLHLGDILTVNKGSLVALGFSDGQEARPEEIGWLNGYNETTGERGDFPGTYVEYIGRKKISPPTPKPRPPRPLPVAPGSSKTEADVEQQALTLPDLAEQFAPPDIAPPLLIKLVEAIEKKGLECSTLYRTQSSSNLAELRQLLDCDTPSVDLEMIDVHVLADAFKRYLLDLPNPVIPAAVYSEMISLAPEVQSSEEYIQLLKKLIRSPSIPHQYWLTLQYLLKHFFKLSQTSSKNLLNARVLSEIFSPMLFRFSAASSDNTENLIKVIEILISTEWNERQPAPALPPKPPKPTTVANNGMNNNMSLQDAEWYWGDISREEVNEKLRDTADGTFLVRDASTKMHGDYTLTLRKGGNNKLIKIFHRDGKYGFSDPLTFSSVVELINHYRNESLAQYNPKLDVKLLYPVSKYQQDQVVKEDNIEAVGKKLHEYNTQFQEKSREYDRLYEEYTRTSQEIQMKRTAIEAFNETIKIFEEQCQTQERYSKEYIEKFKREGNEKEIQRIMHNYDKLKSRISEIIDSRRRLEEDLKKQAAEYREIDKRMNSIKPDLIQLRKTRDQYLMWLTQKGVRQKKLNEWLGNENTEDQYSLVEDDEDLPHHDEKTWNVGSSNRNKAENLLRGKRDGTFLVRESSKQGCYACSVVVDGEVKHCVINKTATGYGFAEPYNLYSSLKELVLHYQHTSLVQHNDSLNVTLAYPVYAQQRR

[4] = target: T4, TRKC (G623R/L686M) (Homo sapiens, UniProt Q16288, G623R/L686M); experiment: Kinase panel assay (radiolabelled); format: biochemical; conditions: 30 μM compound, ATP 10 μM, duplicates Data 1/Data 2
T4 construct: purchased Reaction Biology Corp
T4 sequence (Q16288 32-839 G623R/L686M): as the sequence (Q16288 32-839 L686M) above, with G592R counted along it

[5] = target: GSK3β (Homo sapiens, UniProt P49841); experiment: GSK3β radiolabelled kinase assay (% residual activity, IC50, ATP competition); format: biochemical
GSK3β, sequence (P49841 whole entry): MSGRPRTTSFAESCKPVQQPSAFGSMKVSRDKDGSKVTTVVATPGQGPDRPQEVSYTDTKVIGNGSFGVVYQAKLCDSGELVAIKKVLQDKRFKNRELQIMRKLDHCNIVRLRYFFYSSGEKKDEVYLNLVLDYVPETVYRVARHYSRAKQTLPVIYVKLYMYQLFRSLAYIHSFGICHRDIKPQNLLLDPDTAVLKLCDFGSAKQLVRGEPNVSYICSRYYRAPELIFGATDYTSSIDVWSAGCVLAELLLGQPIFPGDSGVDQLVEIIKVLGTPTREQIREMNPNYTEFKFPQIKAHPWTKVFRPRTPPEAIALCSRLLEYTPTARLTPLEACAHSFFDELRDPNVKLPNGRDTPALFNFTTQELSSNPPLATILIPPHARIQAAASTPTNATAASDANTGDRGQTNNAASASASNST

[6] = tested on: PGE2; experiment: Secreted PGE2 immunoassay in LPS-induced BV-2 cells; format: cell-based, murine
Experimental: To evaluate the secreted level of Prostaglandin E2 (PGE2), Tumor necrosis factor (TNF-α), Interleukin (IL-6), Interleukin (IL-1β), BV2 cells were seeded in a 6 well plate at the density of 1.5 × 10^6 cells/well in DMEM and incubated for 24 h. Seeded cells sere pretreated and, activated with LPS for next 24 h. conditioned medium from treated cells were collected and stored at -80 degree for longer period of time. The amount of TNF-α, IL-1β, PGE2,and IL-6 were evaluated using the competitive enzyme immunoassay kit. PGE2 kit were obtained from (Cayman Chemical, Ann Arbor, MI, USA) and TNF-α, IL-1β, and IL-6 were measured using ELISA development kits (R&D Systems, Minneapolis, MN, USA). All the protocol was exactly followed as written in the manual.

[7] = target: T5, mTOR/FRAP1 (Homo sapiens, UniProt P42345); experiment: Kinase panel assay (radiolabelled); format: biochemical; conditions: 30 μM compound, ATP 10 μM, duplicates Data 1/Data 2
T5 construct: purchased Reaction Biology Corp

[8] = target: T6, RIPK5 (Homo sapiens, UniProt Q6XUX3); experiment: Kinase panel assay (radiolabelled); format: biochemical; conditions: ATP 10 μM
T6 construct: purchased Reaction Biology Corp
T6 sequence (Q6XUX3 1-929): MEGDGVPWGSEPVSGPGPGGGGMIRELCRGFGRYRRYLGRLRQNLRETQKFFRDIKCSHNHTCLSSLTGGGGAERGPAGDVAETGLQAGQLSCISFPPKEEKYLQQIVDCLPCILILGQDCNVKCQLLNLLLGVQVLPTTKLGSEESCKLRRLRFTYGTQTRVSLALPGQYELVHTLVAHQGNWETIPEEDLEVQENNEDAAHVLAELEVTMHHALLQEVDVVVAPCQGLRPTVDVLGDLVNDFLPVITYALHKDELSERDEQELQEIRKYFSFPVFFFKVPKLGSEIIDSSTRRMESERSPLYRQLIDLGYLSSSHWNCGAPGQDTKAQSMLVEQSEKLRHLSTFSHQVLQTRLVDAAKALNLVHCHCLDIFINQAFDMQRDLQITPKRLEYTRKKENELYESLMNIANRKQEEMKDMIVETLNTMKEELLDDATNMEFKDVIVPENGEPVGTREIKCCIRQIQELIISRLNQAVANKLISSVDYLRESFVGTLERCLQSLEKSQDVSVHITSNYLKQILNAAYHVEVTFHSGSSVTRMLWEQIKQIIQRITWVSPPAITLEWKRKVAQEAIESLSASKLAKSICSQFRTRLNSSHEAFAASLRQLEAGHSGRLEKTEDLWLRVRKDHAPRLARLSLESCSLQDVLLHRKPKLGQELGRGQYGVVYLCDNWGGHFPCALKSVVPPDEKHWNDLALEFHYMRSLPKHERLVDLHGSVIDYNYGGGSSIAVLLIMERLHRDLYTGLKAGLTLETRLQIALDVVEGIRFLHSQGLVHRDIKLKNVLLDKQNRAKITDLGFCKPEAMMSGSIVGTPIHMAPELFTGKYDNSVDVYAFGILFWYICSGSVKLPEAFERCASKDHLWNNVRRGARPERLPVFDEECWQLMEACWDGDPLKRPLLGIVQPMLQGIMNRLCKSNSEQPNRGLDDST

[9] = target: T7, SPHK2 (Homo sapiens, UniProt Q9NRA0); experiment: Kinase panel assay (lipid kinase); format: biochemical; conditions: 30 μM compound, ATP 10 μM, duplicates Data 1/Data 2
T7 construct: purchased Reaction Biology Corp
T7 sequence (Q9NRA0 whole entry): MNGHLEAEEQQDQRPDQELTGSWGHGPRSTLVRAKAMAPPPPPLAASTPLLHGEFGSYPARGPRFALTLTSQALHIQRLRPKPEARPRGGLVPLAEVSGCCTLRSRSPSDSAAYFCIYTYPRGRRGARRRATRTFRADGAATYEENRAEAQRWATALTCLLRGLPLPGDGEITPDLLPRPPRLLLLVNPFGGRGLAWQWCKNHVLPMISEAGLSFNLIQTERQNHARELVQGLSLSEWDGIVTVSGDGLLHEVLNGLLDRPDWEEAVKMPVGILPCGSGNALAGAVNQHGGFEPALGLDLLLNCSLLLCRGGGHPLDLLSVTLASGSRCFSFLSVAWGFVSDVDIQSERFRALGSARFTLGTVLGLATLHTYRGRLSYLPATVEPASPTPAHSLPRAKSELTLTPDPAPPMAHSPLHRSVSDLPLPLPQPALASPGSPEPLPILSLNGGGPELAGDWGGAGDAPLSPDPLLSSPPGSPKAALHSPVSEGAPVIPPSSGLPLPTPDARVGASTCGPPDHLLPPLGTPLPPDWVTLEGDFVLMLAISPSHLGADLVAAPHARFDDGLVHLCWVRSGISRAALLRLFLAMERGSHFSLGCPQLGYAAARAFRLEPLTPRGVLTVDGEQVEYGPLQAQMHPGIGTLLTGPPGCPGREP

[10] = target: T8, TRKA-TFG (TRK-T3) (Homo sapiens, UniProt P04629+Q92734); experiment: Kinase panel assay (radiolabelled); format: biochemical; conditions: 30 μM compound, ATP 10 μM, duplicates Data 1/Data 2
T8 construct: TFG (fusion partner); purchased Reaction Biology Corp
T8 sequence (Q92734+P04629 fused): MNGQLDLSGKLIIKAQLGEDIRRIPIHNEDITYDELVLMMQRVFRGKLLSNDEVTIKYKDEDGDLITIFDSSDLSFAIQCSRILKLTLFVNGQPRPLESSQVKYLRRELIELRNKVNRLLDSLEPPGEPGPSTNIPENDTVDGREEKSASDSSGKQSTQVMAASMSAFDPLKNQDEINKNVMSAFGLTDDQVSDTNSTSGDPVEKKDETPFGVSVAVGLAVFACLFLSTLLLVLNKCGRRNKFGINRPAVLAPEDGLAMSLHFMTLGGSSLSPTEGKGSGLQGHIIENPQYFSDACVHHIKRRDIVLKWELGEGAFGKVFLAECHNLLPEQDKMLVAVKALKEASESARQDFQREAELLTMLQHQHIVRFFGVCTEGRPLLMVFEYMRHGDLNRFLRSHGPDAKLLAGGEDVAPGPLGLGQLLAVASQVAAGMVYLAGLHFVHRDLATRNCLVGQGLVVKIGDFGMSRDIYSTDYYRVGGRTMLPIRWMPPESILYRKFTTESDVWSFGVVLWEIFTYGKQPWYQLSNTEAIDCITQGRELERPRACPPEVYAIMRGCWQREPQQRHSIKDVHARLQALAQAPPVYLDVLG

[11] = target: T9, MST3/STK24 (Homo sapiens, UniProt Q9Y6E0); conditions: cited from earlier work
T9 construct: purchased Reaction Biology Corp

[12] = target: T10, JNK3 (Homo sapiens, UniProt P53779); conditions: cited from earlier work
T10 construct: purchased Reaction Biology Corp
T10 sequence (P53779 whole entry): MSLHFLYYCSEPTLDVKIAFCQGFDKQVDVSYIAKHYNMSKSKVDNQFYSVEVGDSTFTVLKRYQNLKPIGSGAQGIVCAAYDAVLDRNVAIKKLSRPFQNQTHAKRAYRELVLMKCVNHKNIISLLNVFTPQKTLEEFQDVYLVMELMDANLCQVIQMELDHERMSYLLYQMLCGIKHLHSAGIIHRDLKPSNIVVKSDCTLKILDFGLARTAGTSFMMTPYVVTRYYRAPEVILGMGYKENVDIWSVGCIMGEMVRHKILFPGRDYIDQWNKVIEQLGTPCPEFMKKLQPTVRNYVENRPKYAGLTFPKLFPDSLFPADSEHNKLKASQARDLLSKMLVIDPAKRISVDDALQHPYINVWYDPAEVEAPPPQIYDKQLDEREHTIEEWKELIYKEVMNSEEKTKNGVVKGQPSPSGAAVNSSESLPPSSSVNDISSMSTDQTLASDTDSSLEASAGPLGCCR

[13] = 30 μM compound, duplicates Data 1/Data 2
[14] = 30 μM compound, duplicates Data 1/Data 2, read-out: % Enzyme Activity (relative to DMSO controls)
[15] = 30 μM, average ± SD, read-out: % Residual Activity at 30 μM
[16] = read-out: % Enzyme Activity (relative to DMSO controls)

O=C1C=CC2(C=C1)OCC(Cc1cn(-c3cccc(Cl)c3)nn1)C(=O)N2c1ccccc1 (centres unmarked) [2d, 3-((1-(3-Chlorophenyl)-1H-1,2,3-triazol-4-yl)methyl)-5-phenyl-1-oxa-5-azaspiro[5.5]undeca-7,10-diene-4,9-dione]
% Enzyme Activity (relative to DMSO controls) [1, 13]: 81.34% | remaining activity at 30 µM [1, 14]: 82.1% | remaining activity at 30 µM [1, 15]: 81.7 ± 0.5% | % Enzyme Activity (relative to DMSO controls) [2]: 106.77% | remaining activity at 30 µM [2, 16]: 107% | % Enzyme Activity (relative to DMSO controls) [3]: 108.46% | remaining activity at 30 µM [3, 16]: 109% | % Enzyme Activity (relative to DMSO controls) [4]: 95.31% | remaining activity at 30 µM [4, 16]: 96% | IC50 ([5]; ATP 1 μM (Table 2), read-out: IC50 on GSK3β (converted)): 7.04 µM | remaining activity at 10 µM ([5]; at 10 μM compound): 51.1 ± 6.1% | secreted level of PGE2 [6]: concentration-dependent manner | % Enzyme Activity (relative to DMSO controls) [7]: 96.09% | remaining activity at 30 µM [7, 16]: 103% | % Enzyme Activity (relative to DMSO controls) [8, 13]: 83.85% | remaining activity at 30 µM [8, 14]: 86.1% | remaining activity at 30 µM [8, 15]: 85 ± 1.6% | % Enzyme Activity (relative to DMSO controls) [9]: 90.95% | remaining activity at 30 µM [9, 16]: 91.5% | % Enzyme Activity (relative to DMSO controls) [10]: 102.82% | remaining activity at 30 µM [10, 16]: 109%

O=C1C=CC2(C=C1)OCC(Cc1cc(C(F)(F)F)cc(C(F)(F)F)c1)C(=O)N2c1ccccc1 (racemic) [1c]
% Residual Activity at 30 μM [11]: 58.3 ± 0.7% | % Residual Activity at 30 μM [12]: 72.0 ± 2.0%
